In patent US8435564B2, “Pharmaceutical compositions comprising brivaracetam” (UCB Pharma, S.A., priority 2008, dated 2013):
Converted amounts (≈) assume the structure as drawn.

Legend:
BCS classification = assay type: physicochemical
Procedure: Considering Brivaracetam is classified as BCS I, the resulting in vitro dissolution (USP <711> apparatus no 2) in a buffered aqueous media has to show a drug release of no more than 40% after 1 hour of dissolution, of 35%-80% after 4 hours of dissolution and of no less than 80% after 16 hours of dissolution. Preferably, a profile of no more than 35% after 1 hour of dissolution, of 40%-75% after 4 hours of dissolution and of no less than 80% after 16 hours of dissolution. More preferably a profile of no more than 30% after 1 hour of dissolution, of 45%-70% after 4 hours of dissolution and of no less than 80% after 16 hours of dissolution.

[1] = water solubility of the active ingredient; assay type: physicochemical
Procedure: Brivaracetam is a very water soluble active ingredient (ca. 700 mg/ml), and it is not obvious to slow down the release of the drug.

## CCC[C@@H]1CC(=O)N([C@@H](CC)C(N)=O)C1 [Brivaracetam, (2S)-2-[(4R)-2-oxo-4-propyl-pyrrolidin-1-yl]butanamide]
BCS classification
  BCS class: BCS I
[1]
  solubility: ~700 mg/mL (≈ 3300 mM)
